Assay results from patent US7501440B2, “Substituted benzoylureidopyridylpiperidine-and-pyrrolidinecarboxylic acid derivatives, processes for preparing them and their use” (Sanofi-Aventis Deutschland GmbH, priority 2003, dated 2009).

target: T1, human glycogen phosphorylase a (Homo sapiens, UniProt P06737); assay: Glycogen phosphorylase a activity test; assay type: biochemical; conditions: inhibition of GPa in vitro, reverse direction (glycogen synthesis from glucose 1-phosphate, release of inorganic phosphate)
T1 sequence (P06737 1-847): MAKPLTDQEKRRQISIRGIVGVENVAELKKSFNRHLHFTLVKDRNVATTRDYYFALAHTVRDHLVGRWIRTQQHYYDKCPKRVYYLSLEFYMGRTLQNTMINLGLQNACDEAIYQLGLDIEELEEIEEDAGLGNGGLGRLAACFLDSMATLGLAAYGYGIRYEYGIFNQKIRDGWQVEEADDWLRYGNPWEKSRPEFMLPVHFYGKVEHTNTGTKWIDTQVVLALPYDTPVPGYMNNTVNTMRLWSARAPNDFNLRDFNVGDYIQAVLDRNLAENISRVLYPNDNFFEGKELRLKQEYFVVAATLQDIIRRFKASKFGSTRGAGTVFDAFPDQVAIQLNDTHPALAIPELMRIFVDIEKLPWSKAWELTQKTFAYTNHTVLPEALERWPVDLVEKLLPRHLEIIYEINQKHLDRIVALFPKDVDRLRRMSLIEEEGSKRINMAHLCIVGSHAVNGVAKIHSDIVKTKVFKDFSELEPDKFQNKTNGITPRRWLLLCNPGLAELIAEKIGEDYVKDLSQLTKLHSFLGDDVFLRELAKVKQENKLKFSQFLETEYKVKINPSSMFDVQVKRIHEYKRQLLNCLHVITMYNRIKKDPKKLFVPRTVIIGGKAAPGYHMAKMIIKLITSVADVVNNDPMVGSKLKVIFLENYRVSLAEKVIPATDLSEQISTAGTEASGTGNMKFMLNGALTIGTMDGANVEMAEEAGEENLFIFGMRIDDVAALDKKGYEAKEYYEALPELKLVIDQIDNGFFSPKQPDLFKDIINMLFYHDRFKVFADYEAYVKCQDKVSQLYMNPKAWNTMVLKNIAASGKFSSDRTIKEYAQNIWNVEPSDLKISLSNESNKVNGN
Experimental: Glycogen Phosphorylase a Activity Test
The effect of compounds on the activity of the active form of glycogen phosphorylase (GPa) was measured in the reverse direction by monitoring the synthesis of glycogen from glucose 1-phosphate by determining the release of inorganic phosphate. All reactions were carried out as duplicate determinations in 96-well microtiter plates (half area plates, Costar No. 3696), and the change in absorption as a consequence of the formation of the reaction product was measured at the wavelength specified below in a Multiskan Ascent Elisa Reader (Lab Systems, Finland). In order to measure the GPa enzyme activity in the reverse direction, the conversion of glucose 1-phosphate to glycogen and inorganic phosphate was measured by the general method of Engers et al. (Engers H D, Shechosky S, Madsen N B, Can J Biochem 1970 July; 48(7):746-754) with the following modifications: human glycogen phosphorylase a (for example containing 0.76 mg of protein/ml (Aventis Pharma Deutschland GmbH), dissolved in buffer solution E (25 mM β-glycerophosphate, pH 7.0, 1 mM EDTA and 1 mM dithiothreitol) was diluted to a concentration of 10 μg of protein/ml with buffer T (50 mM Hepes, pH 7.0, 100 mM KCI, 2.5 mM EDTA, 2.5 mM MgCl2·6H2O) and addition of 5 mg/ml of glycogen. Test substances were prepared as a 10 mM solution in DMSO and diluted to 50 μM with buffer solution T. To 10 μl of this solution were added 10 μl of 37.5 mM glucose dissolved in buffer solution T and 5 mg/ml of glycogen, and also 10 μl of a solution of human glycogen phosphorylase a (10 μg of protein/ml) and 20 μl of 2.5 mM glucose 1-phosphate. The base value of the activity of glycogen phosphorylase a in the absence of test substance was determined by adding 10 μl of buffer solution T (0.1% DMSO). The mixture was incubated at room temperature for 40 minutes and the released inorganic phosphate was determined by means of the general method of Drueckes et al. (Drueckes P, Schinzel R, Palm D, Anal Biochem 1995 September 1;230(1):173-177) with the following modifications: 50 μl of a stop solution of 7.3 mM of ammonium molybdate, 10.9 mM of zinc acetate, 3.6% of ascorbic acid, 0.9% of SDS are added to 50 μl of the enzyme mixture. After 60 minutes of incubation at 45° C., the absorption was measured at 820 nm. To determine the background absorption, the stop solution was added immediately after the addition of the glucose 1-phosphate solution in a separate reaction. […]

| Compound | IC50 [nM] |
| --- | --- |
| O=C(NC(=O)c1ccc(F)cc1Cl)Nc1cccnc1N1CCC(C(=O)O)CC1 [Example 1, 3′-[3-(2-Chloro-4-fluorobenzoyl)ureido]-3,4,5,6-tetrahydro-2H-[1,2′]bipyridinyl-4-carboxylic acid] | 40 |
| O=C(NC(=O)c1cc(F)c(F)cc1Cl)Nc1cccnc1N1CCC(C(=O)O)CC1 [Example 2, 3+-[3-(2-Chloro-4,5-difluorobenzoyl)ureido]-3,4,5,6-tetrahydro-2H-[1,2′]bipyridinyl-4-carboxylic acid] | 10 |
| NC(=O)C1CCN(c2ncccc2NC(=O)NC(=O)c2cc(F)c(F)cc2Cl)CC1 [Example 4, 3′-[3-(2-Chloro-4,5-difluorobenzoyl)ureido]-3,4,5,6-tetrahydro-2H-[1,2′]bipyridinyl-4-carboxamide] | 160 |
| O=C(NC(=O)c1cc(F)c(F)cc1Cl)Nc1cccnc1N1CCC(C(=O)NCCO)CC1 [Example 5, N-(2-hydroxyethyl)-3′-[3-(2-chloro-4,5-difluorobenzoyl)ureido]-3,4,5,6-tetrahydro-2H-[1,2′]bipyridinyl-4-carboxamide] | 3650 |

tested on: not given; assay: not given; conditions: not given

| Compound | melting point [°C] |
| --- | --- |
| COC(=O)C1CCN(c2ncccc2NC(=O)NC(=O)c2cc(F)c(F)cc2Cl)CC1 [Example 3, Methyl 3′-[3-(2-chloro-4,5-difluorobenzoyl)ureido]-3,4,5,6-tetrahydro-2H-[1,2′]bipyridinyl-4-carboxylate] | 195.9 |
| O=C(NC(=O)c1cc(F)c(F)cc1Cl)Nc1cccnc1N1CCC(C(=O)O)(c2ccccc2)CC1 [Example 6, 3′-[3-(2-Chloro-4,5-difluorobenzoyl)ureido]-4-phenyl-3,4,5,6-tetrahydro-2H-[1,2′]bipyridinyl-4-carboxylic acid] | 250.9 |
